Assay results as given in article PMC5465826 (Research in Pharmaceutical Sciences, 2017).
Where “and” joins values, the source holds several entries; their conditions need not be identical. Equal entries are not always repeated. Where two headings read alike, the source gives them in different places.

What was measured:
[1] = humans, 5 g oral dose of a botanical mixture of 7 herbs; ref [28]; cited from earlier work
[2] = assay type: in vivo, rat
[3] = ref [18][19][21][25][26][27], cited from earlier work
[4] = intravenous 20 mg/kg, achiral, approximate; ref [25][26]; cited from earlier work
[5] = rat serum, IV 20 mg/kg racemic liquiritigenin, mean ± SEM, n = 4, 20 mg/kg
[6] = oral, given alone or in a mixture (exact dose unknown), approximate

Row | time liquiritigenin could be measured in serum ([2]; rat serum) | time liquiritigenin could be measured (detected) in urine ([2]; rat urine) | Vss ([2]; rat, IV 20 mg/kg racemic liquiritigenin, mean ± SEM, n = 4, 20 mg/kg) [L/kg] | Structure (SMILES) | fraction excreted unchanged in the urine (fe %) [1] [%] | t1/2 serum [2, 5] | bioavailability ([3]; Kang, et al., oral doses of 20-50 mg/kg) | AUC [3, 6] [ng·h/mL] | plasma half-lives [3, 6] [h] | AUC [4] [µg·min/mL] | clearances [4] [mL/min/kg] | plasma half-lives [4] [min]
1 | – | – | – | O=C1C[C@H](c2ccc(O)cc2)Oc2cc(O)ccc21 [R-liquiritigenin] | 50.9 ± 21.6 | 32.59 ± 4.26 min | – | – | – | – | – | –
2 | – | – | – | O=C1C[C@@H](c2ccc(O)cc2)Oc2cc(O)ccc21 [S-liquiritigenin] | 36.2 ± 19.0 | – | – | – | – | – | – | –
3 | only an hour | up to 70 h | 2.7 to 4.6 | O=C1C[C@@H](c2ccc(O)cc2)Oc2cc(O)ccc21 [liquiritigenin] | – | 12 to 30 min and 15 to 32.4 min and 15 to 25.8 min | 3-7% | 19 to 6594 | 3 to 11 | 290 to 410 | 50 to 70 | 5 to 8
